Experimental data as given in article PMC6270091, “GABAB-Agonistic Activity of Certain Baclofen Homologues” (Molecules, 2013).
Entries after “also recorded” stand apart in the source; their conditions may differ. Structures can show the parent of a compound that is named as a salt.

Columns and labels:
[1] = biological target: T1, GABABR1b/GABABR2 receptors co-expressed with the chimeric G protein Gαq-z5 in tsA201 cells (Rattus norvegicus, UniProt Q9Z0U4); test: GABAB agonist activity, intracellular calcium (Fluo-4) in transfected tsA201 cells; assay type: cell-based; details: Ca2+ response; for EC50: agonist, tsA201 cells transfected with GABAB1b/GABAB2/Gqz5; for GABABR agonistic activity (in words): tsA201 cells
T1 construct: expressed in transfected cells; host or cells: tsA201 cells (transformed HEK293), transient transfection with pcDNA3.1 plasmids using SuperFect
T1 sequence (Q9Z0U4 1-844 isoform Q9Z0U4-3): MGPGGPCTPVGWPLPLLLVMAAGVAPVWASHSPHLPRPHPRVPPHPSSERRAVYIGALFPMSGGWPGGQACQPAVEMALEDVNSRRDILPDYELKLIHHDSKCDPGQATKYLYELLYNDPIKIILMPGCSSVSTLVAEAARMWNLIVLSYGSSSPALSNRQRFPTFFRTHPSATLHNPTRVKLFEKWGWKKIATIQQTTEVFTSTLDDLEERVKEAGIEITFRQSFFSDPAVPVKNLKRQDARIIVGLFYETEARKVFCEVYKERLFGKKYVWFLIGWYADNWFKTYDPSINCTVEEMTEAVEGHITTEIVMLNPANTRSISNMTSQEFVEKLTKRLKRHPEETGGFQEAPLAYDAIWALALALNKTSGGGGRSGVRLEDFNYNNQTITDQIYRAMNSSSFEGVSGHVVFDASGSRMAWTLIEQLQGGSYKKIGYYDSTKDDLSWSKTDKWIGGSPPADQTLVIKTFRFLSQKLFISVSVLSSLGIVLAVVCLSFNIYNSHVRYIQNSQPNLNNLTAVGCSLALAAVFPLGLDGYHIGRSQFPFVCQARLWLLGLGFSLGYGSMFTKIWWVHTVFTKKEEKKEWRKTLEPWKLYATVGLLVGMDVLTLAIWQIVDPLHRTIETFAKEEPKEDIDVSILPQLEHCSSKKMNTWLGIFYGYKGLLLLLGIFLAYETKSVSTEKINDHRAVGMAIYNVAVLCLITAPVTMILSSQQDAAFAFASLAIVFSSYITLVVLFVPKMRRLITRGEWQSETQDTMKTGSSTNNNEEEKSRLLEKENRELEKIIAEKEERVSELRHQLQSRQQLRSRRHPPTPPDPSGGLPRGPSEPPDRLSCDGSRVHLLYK
T1 sequence (O88871 41-940 partner): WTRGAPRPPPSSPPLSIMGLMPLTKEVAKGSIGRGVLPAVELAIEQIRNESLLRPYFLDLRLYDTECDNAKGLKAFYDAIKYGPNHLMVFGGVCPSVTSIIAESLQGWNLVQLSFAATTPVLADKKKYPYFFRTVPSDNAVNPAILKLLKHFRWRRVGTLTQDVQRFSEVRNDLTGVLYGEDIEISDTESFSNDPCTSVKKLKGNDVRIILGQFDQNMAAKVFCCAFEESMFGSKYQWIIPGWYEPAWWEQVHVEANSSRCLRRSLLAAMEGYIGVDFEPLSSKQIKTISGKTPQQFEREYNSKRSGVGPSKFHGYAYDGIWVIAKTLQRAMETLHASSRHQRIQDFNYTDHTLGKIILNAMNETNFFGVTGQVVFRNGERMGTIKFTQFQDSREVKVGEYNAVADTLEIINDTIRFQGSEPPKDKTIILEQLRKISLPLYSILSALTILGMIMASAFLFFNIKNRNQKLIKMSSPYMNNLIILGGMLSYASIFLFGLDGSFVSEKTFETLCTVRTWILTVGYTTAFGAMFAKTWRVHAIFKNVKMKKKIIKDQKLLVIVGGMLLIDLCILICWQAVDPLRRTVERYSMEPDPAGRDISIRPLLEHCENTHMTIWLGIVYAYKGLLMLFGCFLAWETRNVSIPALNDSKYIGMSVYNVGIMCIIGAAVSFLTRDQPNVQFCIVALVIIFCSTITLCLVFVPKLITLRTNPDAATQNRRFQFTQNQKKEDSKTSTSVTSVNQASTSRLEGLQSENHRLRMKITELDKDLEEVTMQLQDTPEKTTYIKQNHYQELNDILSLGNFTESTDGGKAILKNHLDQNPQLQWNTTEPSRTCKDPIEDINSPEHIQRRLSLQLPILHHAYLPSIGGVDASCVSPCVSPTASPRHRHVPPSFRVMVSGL
Text: We have previously described a robust pharmacological assay of heterodimeric GABABR1b/GABABR2 receptors co-expressed with the chimeric G protein Gαq-z5 in tsA201 cells (a transformed HEK293 cell line). Co-expression of Gαq-z5 convert the endogenous coupling to the Gαi/o signaling pathway to the Gq pathway, which generally leads to more robust assays measured as increases in inositol phosphates or intracellular calcium levels.
Culture media, serum and antibiotics were obtained from Invitrogen (Paisley, UK). The rat GABABR plasmids and the Gαq-z5 construct were generous gifts from Dr. Janet Clark (National Institute of Health, Bethesda, MD, USA) and Dr. Bruce Conklin (University of California, San Francisco, CA, USA). The tsA201 cells were a generous gift from Dr. Penelope S. V. Jones (University of California, San Diego, CA, USA).
One million cells were split into a 10 cm tissue culture plate and transfected the following day with 0.7 μg GABABR1b-pcDNA3.1, 3.5 μg GABABR2-pcDNA3.1 and 0.7μg Gαq-z5-pcDNA using SuperFect as a DNA carrier according to the protocol by the manufacturer (Qiagen, Hilden, Germany). The day after transfection, cells were split into one poly-D-lysine coated 96-well black-walled–clear-bottomed tissue culture plates in the same medium as mentioned above and incubated overnight. The following day the measurement of intracellular calcium was performed as follows. The media was exchanged with Hanks balanced saline solution containing 1 mM CaCl2, 1 mM MgCl2, 20 mM HEPES, 2.5 mM probencid and 4 μM Fluo-4AM (pH = 7.4). […] Cells were then washed twice with the same buffer without Fluo-4AM and finally 100 μL of the buffer was left in the wells. […] Fluorescence readings were measured for 45 s after addition of ligand and response was calculated as peak response minus basal level. […] Twenty min after application of ligand, 10 μM GABA was added to the well and fluorescence was measured as above.
All data analysis has been carried out using GraphPad Prism version 6.0c for Mac OS X (GraphPad Software, San Diego, CA, USA). Concentration-response curves have been fitted by non-linear regression using the equation for sigmoidal concentration-response function:R = Rmin + (Rmax − Rmin)/(1 + 10 ^ (logEC50 − X)) in which X is the logarithm of the agonist concentration, R is the response, Rmax is the maximal response, Rmin is the minimal response and EC50 is the concentration giving half maximum response.

[2] = biological target: T1, GABABR1b/GABABR2 receptors co-expressed with the chimeric G protein Gαq-z5 in tsA201 cells; test: GABAB antagonist test, intracellular calcium (Fluo-4) against 10 μM GABA in transfected tsA201 cells; assay type: cell-based; details: 1 mM concentration against 10 μM GABA
Text: Regarding the structure-activity relationship in the synthesized series 1a–i, it has to be mentioned that mono-substitution on the aromatic moiety attached to the 3-position of the DAVA backbone with a halogen, especially a para-chloro, is optimum for GABABR agonistic activity. The synthesized compounds which evoked GABABR agonistic activity have the following decreasing order of activity: 1a > 1e > 1f.
TsA201 cells (a transformed human embryonic kidney (HEK) 293 cell line) were maintained at 37 °C in a humidified 5% CO2 incubator in Dulbecco’s modified Eagle medium (DMEM) supplemented with penicillin (100 U/mL), streptomycin ([…]) and 10% fetal calf serum. One million cells were split into a 10 cm tissue culture plate and transfected the following day with 0.7 μg GABABR1b-pcDNA3.1, 3.5 μg GABABR2-pcDNA3.1 and 0.7μg Gαq-z5-pcDNA using SuperFect as a DNA carrier according to the protocol by the manufacturer (Qiagen, Hilden, Germany). The day after transfection, cells were split into one poly-D-lysine coated 96-well black-walled–clear-bottomed tissue culture plates in the same medium as mentioned above and incubated overnight. The following day the measurement of intracellular calcium was performed as follows. The media was exchanged with Hanks balanced saline solution containing 1 mM CaCl2, 1 mM MgCl2, 20 mM HEPES, 2.5 mM probencid and 4 μM Fluo-4AM (pH = 7.4). The cells were incubated for 1 h at 37 °C in a humidified 5% CO2 incubator. Cells were then washed twice with the same buffer without Fluo-4AM and finally 100 μL of the buffer was left in the wells. The cell plate was then transferred to the NovoStar (BMG Labtechnologies, Offenburg, Germany) and the basal fluorescence level was adjusted to ~10,000 fluorescence units (FU) using excitation/emission wavelengths of 485–520 nm, respectively. Fluorescence readings were measured for 45 s after addition of ligand and response was calculated as peak response minus basal level. […] Twenty min after application of ligand, 10 μM GABA was added to the well and fluorescence was measured as above.

GABAB receptors = test system: GABAB receptors; parameters: method as in earlier work; details: cited from earlier work

melting point	EC50 [1]	GABABR antagonist activity [2]	SMILES	also measured
204 to 206 °C			Cc1ccc(C(CCN)CC(=O)O)cc1 (racemic) (as salt: hydrochloride) [Compound 1c, (R,S)-5-Amino-3-(4-methylphenyl)pentanoic acid hydrochloride]	
	130 µM		NCCC(CC(=O)O)c1ccc(Cl)c(Cl)c1 (racemic) [Compound 1e, (R,S)-5-Amino-3-(3,4-chlorophenyl)pentanoic acid hydrochloride]	
	46 µM		NCCC(CC(=O)O)c1ccc(Cl)cc1 (racemic) [Compound 1a, (R,S)-5-Amino-3-(4-chlorophenyl)pentanoic acid hydrochloride]	
215 to 217 °C			NCCC(CC(=O)O)c1ccc(Cl)cc1Cl (racemic) (as salt: hydrochloride) [Compound 1b, (R,S)-5-Amino-3-(2,4-chlorophenyl)pentanoic acid hydrochloride]	
201 to 203 °C			NCCC(CC(=O)O)c1ccc(Cl)c(Cl)c1 (racemic) (as salt: hydrochloride) [Compound 1e, (R,S)-5-Amino-3-(3,4-chlorophenyl)pentanoic acid hydrochloride]	
208 to 210 °C			NCCC(CC(=O)O)c1ccc(F)cc1 (racemic) (as salt: hydrochloride) [Compound 1f, (R,S)-5-Amino-3-(4-fluorophenyl)pentanoic acid hydrochloride]	
195 to 196 °C			NCCC(CC(=O)O)c1ccccc1 (racemic) (as salt: hydrochloride) [Compound 1d, (R,S)-5-Amino-3-phenylpentanoic acid hydrochloride]	
164 to 165 °C	> 300 µM	none of these compounds were effective	CC(CCN)CC(=O)O (racemic) [Compound 1i, (R,S)-5-amino-3-methylpentanoic acid]	GABABR agonistic activity (in words) [1]: loss of GABABR agonistic activity; also recorded: devoid of GABABR agonistic activity
194 to 195 °C			COc1ccc(C(CCN)CC(=O)O)cc1 (racemic) (as salt: hydrochloride) [Compound 1h, (R,S)-5-Amino-3-(4-methoxyphenyl)pentanoic acid hydrochloride]	
	170 µM		NCCC(CC(=O)O)c1ccc(F)cc1 (racemic) [Compound 1f, (R,S)-5-Amino-3-(4-fluorophenyl)pentanoic acid hydrochloride]	
	> 300 µM	none of these compounds were effective	COc1cccc(C(CCN)CC(=O)O)c1 (racemic) [Compound 1g, (R,S)-5-Amino-3-(3-methoxyphenyl)pentanoic acid hydrochloride]	
	> 300 µM	none of these compounds were effective	COc1ccc(C(CCN)CC(=O)O)cc1 (racemic) [Compound 1h, (R,S)-5-Amino-3-(4-methoxyphenyl)pentanoic acid hydrochloride]	
182 to 184 °C			COc1cccc(C(CCN)CC(=O)O)c1 (racemic) (as salt: hydrochloride) [Compound 1g, (R,S)-5-Amino-3-(3-methoxyphenyl)pentanoic acid hydrochloride]	
	> 300 µM	none of these compounds were effective	Cc1ccc(C(CCN)CC(=O)O)cc1 (racemic) [Compound 1c, (R,S)-5-Amino-3-(4-methylphenyl)pentanoic acid hydrochloride]	
	> 300 µM	none of these compounds were effective	NCCC(CC(=O)O)c1ccccc1 (racemic) [Compound 1d, (R,S)-5-Amino-3-phenylpentanoic acid hydrochloride]	
			NCCCC(C(=O)O)c1ccc(Cl)cc1 (racemic) [Compound 3, (R,S)-5-amino-2-(4-chlorophenyl)pentanoic acid]	interaction with GABAB receptors (GABAB receptors): does not interact detectably
	> 300 µM	none of these compounds were effective	NCCC(CC(=O)O)c1ccc(Cl)cc1Cl (racemic) [Compound 1b, (R,S)-5-Amino-3-(2,4-chlorophenyl)pentanoic acid hydrochloride]	GABABR agonistic activity (in words) [1]: lack of GABABR agonistic activity
201 to 203 °C			NCCC(CC(=O)O)c1ccc(Cl)cc1 (racemic) (as salt: hydrochloride) [Compound 1a, (R,S)-5-Amino-3-(4-chlorophenyl)pentanoic acid hydrochloride]	
